{
  "source": "patent US20110008302A1",
  "about": "“Compositions and methods for immortalizing cells and screening for anti-cancer agents” (priority 2007, published 2011)",
  "key": {"Ndy1": {"tested_on": "Ndy1", "assay": "siRNA knock down in MEFs (Western blot, real time PCR of p16Ink4a, p19Arf, Ezh2, miR-101)", "assay_type": "cell-based, mouse", "settings": "passage 3 MEFs, knock down of the short form of Ndy1", "protocol": "At a time point four days after transfection cells were analyzed by Western blotting and total mRNA was collected and analyzed by real-time PCR with primers specific for p16^Ink4a and p19^Arf and primers specific for the long and short forms of Ndy1. (n=3)*p<0.05\nMEFs overexpressing Ndy1 or Ndy2 and MEFs in which Ndy1 was knocked down with siRNA (1433-[…]-1454, SEQ ID NO: 1), were monitored for senescence by light microscopy and β-galactosidase staining and by cell counting at each passage. Transfection of siRNA was carried out using Lipofectamine 2000 (Invitrogen; Carlsbad, Calif.). Knockdown of Ndy1 was confirmed by Western blotting and real time RTPCR.\nFor siRNA. MEFs transfected with Ndy1 (1433-[…]-1454; SEQ ID NO: 51) or control siRNA (Dharmacon) were plated at 10^5 cells per 6 cm dish and 3-4 days later were harvested and analyzed (Pfau, R., et al. (2008) Proc Natl Acad Sci USA 105, 1907-12, incorporated herein by reference in its entirety). MEFs were transfected with the help of Lipofectamine 2000 (Invitrogen). To specifically knock down the short form of Ndy1 the following siRNA were used: 5′-[…]-′3 (SEQ ID NO: 52) which specifically targets the exon1 of the v2 isoform of Ndy1 (NM_013910). siRNAs for Ezh2 (a mix of two siRNAs form Applied Biosystems, #AM16708 siID #157427 and #157426) and Bmi-1 (Santa Cruz Biotechnologies, # sc-29815) were used in a final concentration of 80 nM."}, "MEFs [1]": {"tested_on": "MEFs", "assay": "Oxidant/antioxidant treatment of MEFs, Ezh2 Western blot", "assay_type": "cell-based, mouse", "settings": "NAC 5 mM, Trolox 1 mM, H2O2 0.5 or 1 mM", "protocol": "MEFs were treated with NAC (5 mM), Trolox (1 mM) or H2O2 (0.5 or 1 mM). Nuclear extracts were probed with antibodies specific for Ezh2 and for CREB, levels of which served as loading control.\n(§1) TROLOX ((±)-6-Hydroxy-2,5,7,8-tetramethylchromane-2-carboxylic acid, (Sigma, catalog number 238813), NAC (N-Acetyl-L-cysteine, Sigma, catalog number A9165), H2O2 (Sigma, catalog number H-1009) and PD173074 (N-[2-[[4-(Diethylamino)butyl]amino]-6-(3,5-dimethoxyphenyl)pyrido[2,3-d]pyrimidin-7-yl]-N′-(1,1-dimethylethyl) urea, FGFR-1/3 inhibitor, TOCRIS Bioscience, catalog number 3044) were added directly in the culture at the indicated concentrations."}, "WIDR cells": {"tested_on": "WIDR cells", "assay": "PD173074 treatment of WIDR cells (Western blot, real time RT-PCR)", "assay_type": "cell-based, human", "protocol": "(§2) WIDR cell were treated with 0.5 μM PD173074 or carrier for 24 hours. (upper) Nuclear and cytoplasmic extracts were probed with antibodies specific for each of Ndy1, Ezh2 and phosphoERK antibodies. CREB and ERK levels served as loading controls. (lower) miR-101 levels were measured with real time RT-PCR; U6 small nuclear RNA levels were used as internal control. Data are expressed as mean±SD.\nWIDR cells were transduced with an HA.Ndy1 overexpression construct or the empty vector (EV), and were subsequently treated with 0.5 μM PD173074 or carrier for 24 hours. (upper) Nuclear extracts were probed with antibodies specific for each of with HA-tag (exogenous Ndy1), Ndy1 (both endogenous and exogenous Ndy1) and Ezh2. CREB levels served as loading controls. (lower) miR-101 levels were measured with real time RT-PCR; U6 small nuclear RNA levels were used as internal controls. Data are expressed as mean±SD.\nas §1\n(§3) As a next step, FGF signaling was examined to determine importance for Ezh2 upregulation by Ndy1 in these cells. To address this issue, TCCSUP or WIDR cells, two of the above five cell lines, were treated with PD173074, an inhibitor of both FGFR1 and both FGFR3.\n(§4) To examine if ectopic expression of Ndy1 reverses the effects of PD173074, namely miR-101 upregulation and Ezh2 downregulation, TCCSUP or WIDR cells were transduced with a pBabe-based retroviral Ndy1 overexpression construct. Cells transduced with the empty pBabe vector were used as control. The engineered cells were subsequently treated with PD173074. Nuclear lysates from these cells were probed with antibodies specific for each of HA-tag (exogenous Ndy1), Ndy1 (both exogenous and endogenous), Ezh2, and CREB. RNA isolated from the same cells was used to measure miR-101 levels with real time RT-PCR."}, "TCCSUP cells": {"tested_on": "TCCSUP cells", "assay": "PD173074 treatment of TCCSUP cells (Western blot, real time RT-PCR)", "assay_type": "cell-based, human", "protocol": "as §2, with “TCCSUP cells” for “WIDR cell”, “phosphoERK.” for “phosphoERK antibodies.”\nTCCSUP cells were transduced with an HA.Ndy1 overexpression construct or with the empty vector (EV), and were subsequently treated with 0.5 μM PD173074 or carrier for 24 hours. (upper) Nuclear extracts were probed with antibodies specific for each of HA-tag (exogenous Ndy1), Ndy1 (both endogenous and exogenous Ndy1) and Ezh2. CREB levels served as loading control. (lower) miR-101 levels were measured with real time RT-PCR; U6 small nuclear RNA levels were used as internal control. Data are expressed as mean±SD.\nas §1, §3, §4"}, "MEFs [2]": {"tested_on": "MEFs", "assay": "Stimulation of serum-starved MEFs with growth factors or serum (Ezh2, Ndy1, miR-101 levels)", "assay_type": "cell-based, mouse", "settings": "serum-starved MEFs, 24 hours after stimulation; for Ezh2 expression: 20 ng/ml (serum 10%)", "protocol": "MEFs were transfected with control siRNA and stimulated with serum (10%) for 1, 4, 12 and 18 hours. (upper) Nuclear extracts were probed with antibody specific for Ezh2 and for CREB, levels of which served as loading control. (lower) Ndy1 and Ezh2 mRNA levels were measured with real time RT-PCR; GAPDH mRNA levels were used as internal control. Data are expressed as mean±SD.\nSerum starved MEFs were stimulated with each of FGF-2 (20 ng/ml), IGF-1 (20 ng/ml), PDGF (20 ng/ml), serum (10%), VEGF (20 ng/ml), EGF (20 ng/ml) or TNFα (50 ng/ml). Nuclear extracts were probed with antibody specific for Ezh2 and for CREB, levels of which served as loading control.\nData are expressed as mean±SD.\nMEFs transfected with control siRNA were stimulated with FGF-2 for 1, 4, 12 or 18 hours. (upper) Nuclear extracts were probed with antibody specific for Ezh2. CREB levels served as loading control. (middle) Ndy1 and Ezh2 mRNA were measured with real time RT-PCR; GAPDH mRNA levels were used as internal control. Data are expressed as mean±SD. (lower) miR-101 levels were measured with real time RT-PCR; U6 small nuclear RNA levels were used as internal control. Data are expressed as mean±SD.\nFor stimulation with FGF-2 (Cell signalling, catalog number 8910), IGF-1 (R&D Systems, catalog number 791-MG), PDGF (Cell signalling, catalog number 9909), VEGF (R&D systems, catalog number 493-MV), EGF (R&D systems, catalog number 236-EG), TNFα (Cell Signalling, catalog number 2169), cells were serum starved for 16 hours and growth factors were added at a final concentration of 20 ng/ml each, for 24 hours.\nTo identify a pathway regulating Ezh2 expression via the Ndy1/miR-101 axis, serum-starved MEFs were stimulated with FGF-2, IGF-1, PDGF, EGF, VEGF, TNFα or serum and were examined for expression of Ezh2, Ndy1 and miR-101 before and 24 hours after stimulation. […] This was confirmed with analyses in which FGF-2 was used to stimulate serum-starved MEFs transfected with a control siRNA or siRNA for Ndy1 (FIG. 36)."}, "[3]": {"settings": "WIDR cells overexpressing HA.Ndy1, 0.5 μM, 24 hours"}, "[4]": {"settings": "TCCSUP cells overexpressing HA.Ndy1, 0.5 μM, 24 hours"}},
  "data": [
    {"compound": "5′-CCGAGGACGACGACUAUGAUU-′3 [Ndy1 short form siRNA]", "values": [
      {"measurement": "p16Ink4a", "setting": "Ndy1", "result": "did not upregulate significantly"},
      {"measurement": "p19Arf", "setting": "Ndy1", "result": "did not upregulate significantly"}
    ]},
    {"compound": "Cc1c(C)c2c(c(C)c1O)CCC(C)(C(=O)O)O2", "note": "(racemic) [Trolox, (±)-6-Hydroxy-2,5,7,8-tetramethylchromane-2-carboxylic acid]", "values": [
      {"measurement": "Ezh2 protein levels", "setting": "MEFs [1]", "result": "no effect"}
    ]},
    {"compound": "OO", "note": "[H2O2]", "values": [
      {"measurement": "Ezh2 protein levels", "setting": "MEFs [1]", "result": "no effect"}
    ]},
    {"compound": "CC(=O)N[C@@H](CS)C(=O)O", "note": "[NAC, N-Acetyl-L-cysteine]", "values": [
      {"measurement": "Ezh2 protein levels", "setting": "MEFs [1]", "result": "no effect"}
    ]},
    {"compound": "CCN(CC)CCCCNc1ncc2cc(-c3cc(OC)cc(OC)c3)c(NC(=O)NC(C)(C)C)nc2n1", "note": "[PD173074, N-[2-[[4-(Diethylamino)butyl]amino]-6-(3,5-dimethoxyphenyl)pyrido[2,3-d]pyrimidin-7-yl]-N′-(1,1-dimethylethyl) urea]", "values": [
      {"measurement": "FGF signaling (level of ERK1/2 phosphorylation)", "setting": "WIDR cells; WIDR cells", "result": "blocked"},
      {"measurement": "effect on Ezh2", "setting": "WIDR cells; [3]", "result": "abrogated"},
      {"measurement": "effect on miR-101", "setting": "WIDR cells; [3]", "result": "abrogated"},
      {"measurement": "Ezh2 protein level", "setting": "WIDR cells; WIDR cells, 0.5 μM, 24 hours", "result": "downregulates"},
      {"measurement": "Ndy1 protein level", "setting": "WIDR cells; WIDR cells, 0.5 μM, 24 hours", "result": "downregulates"},
      {"measurement": "miR-101 levels", "setting": "WIDR cells; WIDR cells, 0.5 μM, 24 hours", "result": "upregulates"},
      {"measurement": "FGF signaling (level of ERK1/2 phosphorylation)", "setting": "TCCSUP cells; TCCSUP cells", "result": "blocked"},
      {"measurement": "effect on Ezh2", "setting": "TCCSUP cells; [4]", "result": "abrogated"},
      {"measurement": "effect on miR-101", "setting": "TCCSUP cells; [4]", "result": "abrogated"},
      {"measurement": "Ezh2 protein level", "setting": "TCCSUP cells; TCCSUP cells, 0.5 μM, 24 hours", "result": "downregulates"},
      {"measurement": "Ndy1 protein level", "setting": "TCCSUP cells; TCCSUP cells, 0.5 μM, 24 hours", "result": "downregulates"},
      {"measurement": "miR-101 levels", "setting": "TCCSUP cells; TCCSUP cells, 0.5 μM, 24 hours", "result": "upregulates"}
    ]},
    {"compound": "IGF-1: growth factor, R&D Systems", "values": [
      {"measurement": "level at which Ezh2 expression is induced", "setting": "MEFs [2]", "result": "at both the RNA and protein levels"},
      {"measurement": "Ezh2 expression", "setting": "MEFs [2]", "result": "significantly upregulated"}
    ]},
    {"compound": "PDGF", "values": [
      {"measurement": "level at which Ezh2 expression is induced", "setting": "MEFs [2]", "result": "at both the RNA and protein levels"},
      {"measurement": "Ezh2 expression", "setting": "MEFs [2]", "result": "significantly upregulated"}
    ]},
    {"compound": "VEGF", "values": [
      {"measurement": "expression of Ndy1", "setting": "MEFs [2]", "result": "only moderate"},
      {"measurement": "level at which Ezh2 expression is induced", "setting": "MEFs [2]", "result": "primarily at the protein level"},
      {"measurement": "miR-101", "setting": "MEFs [2]", "result": "downregulating"},
      {"measurement": "Ezh2 expression", "setting": "MEFs [2]", "result": "significantly upregulated"}
    ]}
  ]
}
